Measured values: patent US20140256756A1, “PIPERIDINYL-SUBSTITUTED LACTAMS AS GPR119 MODULATORS” (Array BioPharma Inc., priority 2011, published 2014)
Where a name gives a salt, the structure may show the parent alone.

System: modified version of the GPR119 receptor (94% identity to human receptor)
Assay: cAMP production assay (LANCE cAMP kit, TR-FRET) in HEK-293 cells
Assay type: cell-based
Conditions: for cAMP production in HEK-293 cells: HEK-293 cells stably expressing modified GPR119, test compounds 0.2 nM to 10 μM, one-hour incubation; for Fold over baseline: increase in cAMP relative to basal levels, agonist activity if 1.5-fold or greater
Method: The assay utilized HEK-293 cells that stably express a modified version of the GPR119 receptor (94% identity to human receptor), under the control of a CMV promoter containing a tet-on element for tetracycline-inducible expression. GPR119 agonist-induced cyclic AMP (cAMP) production was measured in this cell line using the LANCE cAMP kit (Perkin Elmer, Waltham, Mass.). To generate a working stock of cells for the assay, cells were treated overnight with 1 μg/mL doxycycline at 37° C. in the presence of 5% CO2 to induce receptor expression. Cells were then harvested by enzymatic dissociation with 0.05% trypsin, resuspended in freezing medium (DMEM growth medium with 10% each of fetal bovine serum and DMSO), aliquoted and frozen at −80° C. On the day of the assay, frozen cells were thawed, washed 1× in PBS and resuspended in Hank's buffered salt solution (HBSS) containing 5 mM HEPES, 0.1% BSA and Alexa Fluor 647-conjugated anti-cAMP antibody (diluted 1:100). The cell suspension was then transferred to a Proxiplate Plus white 384-well assay plate (Perkin-Elmer) at 2000 cells/well. Test compounds at final concentrations ranging from 0.2 nM to 10 μM were added to the assay plate, followed by a one-hour incubation at ambient temperature (volume=10 μL/well). DMSO concentration was held constant at 0.5%. After incubation with test compounds, 10 μL, of a detergent buffer containing a biotinylated cAMP/Europium-conjugated streptavidin complex (Europium-labeled cAMP tracer) were added to each well on the assay plate, followed by a 2-hour incubation at ambient temperature. During this incubation cAMP released from lysed cells competes with the Europium-labeled cAMP tracer for binding to the Alexa Fluor 647-conjugated antibody. […] Cellular cAMP levels were then determined by interpolation of raw signal data using a cAMP standard curve. Compounds were determined to have agonist activity if they stimulated a 1.5-fold or greater increase in cAMP relative to basal levels.

Row | Compound | cAMP production in HEK-293 cells | Fold over baseline
1 | CC(C)c1nsc(N2CCC(N3CCC(Oc4ccc(S(=O)(=O)CC5CC5)cc4F)C3=O)CC2)n1 (stereo not drawn) [Example 44, 3-(4-(Cyclopropylmethylsulfonyl)-2-fluorophenoxy)-1-(1-(3-isopropyl-1,2,4-thiadiazol-5-yl)piperidin-4-yl)pyrrolidin-2-one trifluoroacetate] | 23.8 nmol | 3.4
2 | CC(C)c1nsc(N2CCC(N3CCC(Oc4ccc(S(=O)(=O)C(C)C)cc4F)C3=O)CC2)n1 (stereo not drawn) [Example 45, 3-(2-fluoro-4-(isopropylsulfonyl)phenoxy)-1-(1-(3-isopropyl-1,2,4-thiadiazol-5-yl)piperidin-4-yl)pyrrolidin-2-one] | 17.8 nmol | 3.5
3 | CC(C)c1nsc(N2CCC(N3CCC(Oc4ccc(S(=O)(=O)C5CC5)cc4F)C3=O)CC2)n1 (stereo not drawn) [Example 46, 3-(4-(Cyclopropylsulfonyl)-2-fluorophenoxy)-1-(1-(3-isopropyl-1,2,4-thiadiazol-5-yl)piperidin-4-yl)pyrrolidin-2-one trifluoroacetate] | 20.7 nmol | 4.7
4 | CS(=O)(=O)c1cc(F)c(OC2CCN(C3CCN(c4nc(C5CC5)ns4)CC3)C2=O)cc1F.O=C(O)C(F)(F)F (stereo not drawn) [Example 47, 1-(1-(3-Cyclopropyl-1,2,4-thiadiazol-5-yl)piperidin-4-yl)-3-(2,5-difluoro-4-(methylsulfonyl)phenoxy)pyrrolidin-2-one trifluoroacetate] | 9.8 nmol | 2.7
5 | CS(=O)(=O)c1cc(F)c(OC2CCN(C3CCN(c4nc(-c5ccccc5)ns4)CC3)C2=O)cc1F (stereo not drawn) [Example 48, 3-(2,5-difluoro-4-(methylsulfonyl)phenoxy)-1-(1-(3-phenyl-1,2,4-thiadiazol-5-yl)piperidin-4-yl)pyrrolidin-2-one trifluoroacetate] | 20.5 nmol | 3.3
6 | CC(C)Cc1nsc(N2CCC(N3CCC(Oc4cc(F)c(S(C)(=O)=O)cc4F)C3=O)CC2)n1 (stereo not drawn) [Example 49, 3-(2,5-difluoro-4-(methylsulfonyl)phenoxy)-1-(1-(3-isobutyl-1,2,4-thiadiazol-5-yl)piperidin-4-yl)pyrrolidin-2-one trifluoroacetate] | 15.4 nmol | 2.8
7 | CC(C)c1nsc(N2CCC(N3CC[C@H](Oc4ccc(S(C)(=O)=O)cc4F)C3=O)CC2)n1 [Example 50, (S)-3-(2-fluoro-4-(methylsulfonyl)phenoxy)-1-(1-(3-isopropyl-1,2,4-thiadiazol-5-yl)piperidin-4-yl)pyrrolidin-2-one] | 15.1 nmol | 5.6
8 | CC(C)c1nsc(N2CCC(N3CC[C@@H](Oc4ccc(S(C)(=O)=O)cc4F)C3=O)CC2)n1 [Example 51, (R)-3-(2-fluoro-4-(methylsulfonyl)phenoxy)-1-(1-(3-isopropyl-1,2,4-thiadiazol-5-yl)piperidin-4-yl)pyrrolidin-2-one] | 33.3 nmol | 5.9
9 | CC(C)c1nsc(N2CCC(N3CC[C@H](Oc4cc(F)c(S(C)(=O)=O)cc4F)C3=O)CC2)n1 [Example 52, (S)-3-(2,5-difluoro-4-(methylsulfonyl)phenoxy)-1-(1-(3-isopropyl-1,2,4-thiadiazol-5-yl)piperidin-4-yl)pyrrolidin-2-one] | 24.6 nmol | 3.9
10 | CC(C)c1nsc(N2CCC(N3CC[C@H](Oc4ccc(S(C)(=O)=O)c(F)c4)C3=O)CC2)n1 [Example 53, (S)-3-(3-fluoro-4-(methylsulfonyl)phenoxy)-1-(1-(3-isopropyl-1,2,4-thiadiazol-5-yl)piperidin-4-yl)pyrrolidin-2-one] | 24.5 nmol | 4.9
11 | CC(C)c1nsc(N2CCC(N3CC[C@H](Oc4ccc(S(C)(=O)=O)c(Cl)c4)C3=O)CC2)n1 [Example 54, (S)-3-(3-chloro-4-(methylsulfonyl)phenoxy)-1-(1-(3-isopropyl-1,2,4-thiadiazol-5-yl)piperidin-4-yl)pyrrolidin-2-one] | 17.2 nmol | 3.6
12 | CN(C)c1nsc(N2CCC(N3CC[C@H](Oc4cc(F)c(S(C)(=O)=O)cc4F)C3=O)CC2)n1 [Example 55, (S)-3-(2,5-difluoro-4-(methylsulfonyl)phenoxy)-1-(1-(3-(dimethylamino)-1,2,4-thiadiazol-5-yl)piperidin-4-yl)pyrrolidin-2-one] | 17.2 nmol | 3.8
13 | CC(C)Cc1nsc(N2CCC(N3CC[C@H](Oc4ccc(S(C)(=O)=O)cc4F)C3=O)CC2)n1 [Example 56, (S)-3-(2-fluoro-4-(methylsulfonyl)phenoxy)-1-(1-(3-isobutyl-1,2,4-thiadiazol-5-yl)piperidin-4-yl)pyrrolidin-2-one] | 17.4 nmol | 3.4
14 | Cc1cc(O[C@H]2CCN(C3CCN(c4nc(C(C)C)ns4)CC3)C2=O)c(F)cc1Br [Example 57, (S)-3-(4-bromo-2-fluoro-5-methylphenoxy)-1-(1-(3-isopropyl-1,2,4-thiadiazol-5-yl)piperidin-4-yl)pyrrolidin-2-one] | 22.0 nmol | 2.8
15 | Cc1cc(O[C@H]2CCN(C3CCN(c4nc(C(C)C)ns4)CC3)C2=O)c(F)cc1S(C)(=O)=O [Example 58, (S)-3-(2-fluoro-5-methyl-4-(methylsulfonyl)phenoxy)-1-(1-(3-isopropyl-1,2,4-thiadiazol-5-yl)piperidin-4-yl)pyrrolidin-2-one] | 48.4 nmol | 4.9
16 | CS(=O)(=O)c1ccc(O[C@H]2CCN(C3CCN(c4nc(C5CCOCC5)ns4)CC3)C2=O)c(F)c1 [Example 59, (S)-3-(2-fluoro-4-(methylsulfonyl)phenoxy)-1-(1-(3-(tetrahydro-2H-pyran-4-yl)-1,2,4-thiadiazol-5-yl)piperidin-4-yl)pyrrolidin-2-one] | 28.3 nmol | 4.2
17 | CC1(c2nsc(N3CCC(N4CC[C@H](Oc5ccc(S(C)(=O)=O)cc5F)C4=O)CC3)n2)CCOCC1 [Example 60, (S)-3-(2-fluoro-4-(methylsulfonyl)phenoxy)-1-(1-(3-(4-methyltetrahydro-2H-pyran-4-yl)-1,2,4-thiadiazol-5-yl)piperidin-4-yl)pyrrolidin-2-one] | 13.2 nmol | 4.5
18 | CCS(=O)(=O)c1ccc(OC2CCN(C3CCN(c4nc(C(C)C)ns4)CC3)C2=O)c(F)c1 (stereo not drawn) [Example 61, 3-(4-(ethylsulfonyl)-2-fluorophenoxy)-1-(1-(3-isopropyl-1,2,4-thiadiazol-5-yl)piperidin-4-yl)pyrrolidin-2-one] | 23.5 nmol | 3.5
19 | CC(C)c1nsc(N2CCC(N3CCC(Oc4ccc(S(=O)(=O)c5ccccc5)cc4F)C3=O)CC2)n1 (stereo not drawn) [Example 62, 3-(2-Fluoro-4-(phenylsulfonyl)phenoxy)-1-(1-(3-isopropyl-1,2,4-thiadiazol-5-yl)piperidin-4-yl)pyrrolidin-2-one] | 17.4 nmol | 2.7
20 | CC(C)c1nsc(N2CCC(N3CCC(Oc4ccc(C#N)cc4F)C3=O)CC2)n1 (stereo not drawn) [Example 63, 3-Fluoro-4-(1-(1-(3-isopropyl-1,2,4-thiadiazol-5-yl)piperidin-4-yl)-2-oxopyrrolidin-3-yloxy)benzonitrile] | 7.4 nmol | 2.7
21 | Cc1cc(O[C@H]2CCN(C3CCN(c4nc(C(C)C)ns4)CC3)C2=O)c(F)cc1C#N [Example 64, (S)-5-fluoro-4-(1-(1-(3-isopropyl-1,2,4-thiadiazol-5-yl)piperidin-4-yl)-2-oxopyrrolidin-3-yloxy)-2-methylbenzonitrile] | 30.8 nmol | 3.5
22 | CC(C)c1nsc(N2CCC(N3CCC(Oc4ccc(S(C)(=O)=O)cc4)C3=O)CC2)n1 (stereo not drawn) [Example 65, -(1-(3-Isopropyl-1,2,4-thiadiazol-5-yl)piperidin-4-yl)-3-(4-(methylsulfonyl)phenoxy)pyrrolidin-2-one] | 22.1 nmol | 4.1
23 | CCS(=O)(=O)c1ccc(OC2CCN(C3CCN(c4nc(C)ns4)CC3)C2=O)c(F)c1 (stereo not drawn) [Example 66, 3-(4-(ethylsulfonyl)-2-fluorophenoxy)-1-(1-(3-methyl-1,2,4-thiadiazol-5-yl)piperidin-4-yl)pyrrolidin-2-one] | 8.6 nmol | 1.8
24 | CCS(=O)(=O)c1ccc(OC2CCN(C3CCN(c4nc(-c5ccccc5)ns4)CC3)C2=O)c(F)c1 (stereo not drawn) [Example 67, 3-(4-(ethylsulfonyl)-2-fluorophenoxy)-1-(1-(3-phenyl-1,2,4-thiadiazol-5-yl)piperidin-4-yl)pyrrolidin-2-one] | 14.0 nmol | 2.3
